Test results reported in patent US20200239587A1, “SENSITIZATION OF TUMORS TO THERAPIES THROUGH ENDOGLIN ANTAGONISM” (Cedars-Sinai Medical Center, priority 2016, published 2020).
Entries after “also recorded” stand apart in the source; their conditions may differ.

Experiments:
prostatic epithelia = assay: Cancer stem cell markers and sphere-forming units; assay type: cell-based; settings: antagonizing endoglin
[1] = system: SIRT1 transcription in CW22Rv1; assay: BMP dependent SIRT1 mRNA expression; assay type: cell-based, human; settings: 50 ng/ml BMP4, serum free; TRC105 0.05-10 μg/ml
Procedure: FIG. 20A) Western blot for SIRT1 expression measured in 22Rv1 cells following serum starvation and treatment with 50 ng/ml BMP4 for 4 hours. Phosphorylated Smad1/5 and β-actin was measured concurrently. FIG. 20B) SIRT1 mRNA expression was measured in CW22Rv1 under serum free conditions with 50 ng/ml BMP4, IgG in the context of increasing doses of TRC105 (0.05, 0.1, 0.5, 1, 5, or 10 μg/ml). SIRT1 mRNA expression was normalized to GAPDH and to serum treated control. FIG. 20C) Fold Change of SIRT1 mRNA in benign prostate and prostate cancer patients, obtained from R2-Genomics analysis is expressed (n=95). FIG. 20D) Immunohistochemical localization for SIRT1 expression in benign and prostate cancer tissues is indicated by arrows (Human Protein Atlas). […] FIG. 20E) SIRT1 mRNA expression was measured 72 hours following irradiation of 22Rv1 in a dose range of 0-6 Gy. FIG. 20F) SIRT1 mRNA expression was measured in a time course 0-72 hours following 4 Gy irradiation. […]
Total RNA was extracted using the RNeasy kit (Qiagen). […] Quantitative RT-PCR was performed with 5 replicates using the Step One Real-Time PCR system (Applied Biosystems). […] For RNA-sequencing, Ion Proton AmpliSeq Transcriptome RNA Sequencing was performed achieving an average of 3M reads. We mapped an average of 88% of the reads to the human genome with Torrent Suite version 4.4.2.

[2] = system: MTCO1 of complex-IV and NDUFB8 of complex-I in 22Rv1; assay: Western blot of mitochondrial electron transport chain proteins; assay type: cell-based, human; settings: 4Gy+TRC105 vs radiation alone, 72 hours
Procedure: Lysate was collected 72 hours post irradiation for Western blot. FIG. 25A) Blots were probed for a cocktail of mitochondrial complex proteins. Protein levels of MTCO1 of complex-IV and NDUFB8 of complex-I were normalized to ponceau. […] Within each group, the first/left column depicts 0Gy+IgG, the second column depicts 0Gy+TRC105, the third column depicts 4Gy+IgG and the last/right column depicts 4Gy+TRC105. (**p<0.01, ***p<0.001)

22Rv1 cells = assay: Annexin-V apoptosis by FACS after irradiation; assay type: cell-based, human; settings: TRC105 with 4 Gy radiation vs radiation alone, 5 days
Procedure: FIG. 18A) Cell surface CD105 expression was measured in PC3, C42b, and 22Rv1 72 hours after 4 Gy irradiation treatment by FACS analysis and compared to cells not irradiated (control). FIG. 18B) Cell surface CD105 expression was measured in cell lines following a dose range of irradiation (0, 2, 4, or 6 Gy). FIG. 18C) The durability of cell surface CD105 expression in 22Rv1 was determined 0, 0.5, 4, 8, 24, 48, 72, 120, and 168 hours following 4 Gy irradiation. CD105 cell surface expression fold change was normalized to levels expressed prior to irradiation. FIG. 18D) Western blot for phosphorylated-Smad1/5 was measured in CW22Rv1 cells in the presence or absence of serum starvation and treatment with 50 ng/ml BMP4 or 1 μg/ml TRC105. β-actin expression served as the loading control. FIG. 18E) Annexin-V expression was measured in 22Rv1 cells by FACS analysis 5 days following 4 Gy irradiation in the presence and absence of TRC105. FIG. 18F) Clonogenic assay was measured 10 days following irradiation of CW22Rv1 and C42b cells in a dose range of 0 to 6 Gy in the presence of 1 μg/ml IgG or TRC105. Data are reported as a mean+/−S.D. (**p<0.01, ***p<0.001).

PC3 cells = assay: MTT proliferation assay; assay type: cell-based, human; settings: enzalutamide in the presence of TRC105
Procedure: (§1) CW22Rv1, C42B, and PC3 cells from ATCC were expanded as directed. Prostatectomy specimens from Cedars-Sinai Medical Center or the Greater Los Angeles Veterans Affairs were cultured to generate NAF and CAF cells using the same method, as C57BL/6 mouse wild-type prostatic fibroblasts were grown as previously reported (Franco et al., 2011, Cancer research 71, 1272-1281; Kiskowski et al., 2011, Cancer research 68, 4709-4718). TRC105 and M1043 were provided by TRACON Pharmaceuticals, Inc. (San Diego, Calif.). Enzalutamide (Xtandi) was purchased from Medivation (San Francisco, Calif.).
(§2) 3000 cells per 96-well were treated for 72 hours using 5 wells per treatment. MTT reagent (M6494, Life Technologies) was prepared as directed, incubated for one hour at 37° C., and analyzed using manufacturer's recommendations.

Rv1 = assay: MTT proliferation assay; assay type: cell-based, human; settings: TRC105 plus enzalutamide
Procedure: as §1, §2

C42B = assay: MTT proliferation assay; assay type: cell-based, human; settings: TRC105 plus enzalutamide
Procedure: as §1, §2

PC3 = assay: Clonogenic survival assay with radiation; assay type: cell-based, human; settings: p53 null prostate cancer cell line
Procedure: (§3) Assays were performed on cell lines with p53 null prostate cancer cell line, FIG. 23A) PC3 and two p53 mutant pancreatic cancer cell lines, FIG. 23B) MIAPACA-2 and FIG. 23C) HPAF-II with indicated doses of radiation. Breast cancer cell lines with intact p53, FIG. 23D) MCF7 and mutant yet functional p53, FIG. 23E) MDA-MB23 were however radio-sensitized by the 1 μg/ml TRC105.

MDAMB231 = assay: Clonogenic survival assay with radiation; assay type: cell-based, human; settings: breast cancer cell line with mutant yet functional p53; 1 μg/ml TRC105
Procedure: as §3

MCF7 = assay: Clonogenic survival assay with radiation; assay type: cell-based, human; settings: breast cancer cell line with intact p53; 1 μg/ml TRC105
Procedure: as §3

MIAPACA-2 = assay: Clonogenic survival assay with radiation; assay type: cell-based, human; settings: p53 mutant pancreatic cancer cell line
Procedure: as §3

HPAF-II = assay: Clonogenic survival assay with radiation; assay type: cell-based, human; settings: p53 mutant pancreatic cancer cell line
Procedure: as §3

Substance: TRC105: partially humanized monoclonal antibody that blocks BMP signaling; human-specific CD105 (endoglin) neutralizing antibody from Tracon Pharmaceuticals
- cancer stem cell markers (CD44, ALDH, Oct4, Sox) and sphere-forming units (prostatic epithelia): down regulated
- BMP dependent induction of SIRT1 transcription [1]: down-regulated when CD105 was antagonized with TRC105 in a dose dependent manner
- mitochondrial electron transport chain proteins MTCO1 and NDUFB8 [2]: down-regulation of CIV-MTCO1 and CI-NDUF88; also recorded: significantly lower
- apoptosis measured by Annexin-V (22Rv1 cells): significantly increased apoptosis
- viability (MTT) (PC3 cells): insensitive
- cell proliferation (MTT), addition of TRC105 to enzalutamide (Rv1): no additional impact
- cell proliferation (MTT), addition of TRC105 to enzalutamide (C42B): no additional impact
- radiation sensitivity, clonogenic survival (PC3): no evidence of radiation sensitization
- radiation sensitivity, clonogenic survival (MDAMB231): positively sensitized to irradiation; also recorded: radio-sensitized
- radiation sensitivity, clonogenic survival (MCF7): positively sensitized to irradiation; also recorded: radio-sensitized
- radiation sensitivity, clonogenic response (MIAPACA-2): neither the HPAF-II nor MIAPACA-2 cell lines treated with radiation showed a change in clonogenic response
- radiation sensitivity, clonogenic response (HPAF-II): neither the HPAF-II nor MIAPACA-2 cell lines treated with radiation showed a change in clonogenic response
